Test results taken from US11149253B2, “Small molecule compound combination for reprogramming digestive tract derived epithelial cells to endodermal stem/progenitor cells, reprogramming method and application” (INSTITUE OF TRANSFUSION MEDICINE, ACADEMY OF MILITARY …, priority 2016, dated 2021).

How the values were obtained:
[1] = tested on: human gastric epithelial cells (hGECs); assay: Reprogramming of human gastric epithelial cells (hGECs) to induced endodermal progenitor cells (hiEndoPCs); clonal formation efficiency; assay type: cell-based; details: aGSEMFs supporting cells; for clonal formation efficiency when the compound was removed from 8M: removed one by one from 8 small molecule compounds (8M), day 15; for clonal formation efficiency when the compound was removed from BBRS: removed one by one from BBRS combination
Procedure: 1. Proliferation of the initiating cells: Primary isolated human gastric epithelial cells (hGECs) or duodenal epithelial cells (hDECs) were used as initiating cells, and cultured in Kubta medium (prepared according to the literature, literature source: Kubota, H., and Reid, L. M. (2000). Clonogenic hepatoblasts, common precursors for hepatocytic and biliary lineages, are lacking classical major histocompatibility complex class I antigen. Proc. Natl. Acad. Sci. USA 97, 12132-12137) at 37° C. in a 5% CO2 incubator for 4-5 days, and the initiating cells were expanded.
2. Preparation of trophoblast cells: adult human gastric subepithelial myofibroblasts (aGSEMFs, the cells were obtained by separation of gastric tissue matrix layers, frozen in large quantities after culture and proliferation, and resuscitated in advance when necessary) as trophoblast cells were treated with mitomycin-C (10 μg/mL, for the purpose of losing mitosis of trophoblast cells) for 2-3 hours, washed with PBS for 3-4 times, the cells were digested by TrypLE enzyme, and then the cells were washed;
3. When human gastric epithelial cells (hGECs) or duodenal epithelial cells (hDECs) were cultured until day 5-6, the treated gastric subepithelial myofibroblasts were added at a suitable density (generally, density of 1-3×10^5 per square centimeter) to human gastric epithelial cells (hGECs) or duodenal epithelial cells (hDECs) being cultured, and placed at 37° C. in a 5% CO2 incubator overnight (12-16 hours);
4. Reprogramming culture: on the second day after the addition of gastric subepithelial myofibroblasts, the medium was changed to 8M reprogramming medium, and changed every 2-3 days, and continuous observation was performed. Generally, induced endodermal progenitor cells (hiEndoPCs) were obtained after culturing for 1 week or 2 weeks more (7-15 days).
1. Calculation of the total number of clones.
2. Calculation of the area of different clones using the microscope graticule: the area of each microscope microlattice was 0.0625 mm^2, and the number of lattices occupied by the clone multiplied by 0.0625 mm^2 was the area of each clone.
3. The evaluation of the efficiency of reprogramming is proformed by colligating number of clones and the area of the clones.
Since the clonal morphology produced on day 15 of reprogramming was most typical (FIGS. 8E and 8F), colony formation efficiency was usually calculated at this time point. However, the growth rate of clones was faster from day 7 to day 15, and many clones were fused together to form a large clone upon the time point for calculation (FIG. 8B), so the number of clones was less upon calculation, but the total area was increasing. In order to reflect the reprogramming effect more objectively, the present experiment colligated the total number of clones and the number of clones and clone area under different areas, as the calculation method of reprogramming efficiency. Calculation of the area of different clones using the microscope graticule: the area of each microscope microlattice was 0.0625 mm^2, and the number of lattices occupied by the clone multiplied by 0.0625 mm^2 was the area of each clone. The calculation method for different sizes of cloned areas was shown in FIG. 9, and the calculation results were shown in Table 4.
1) The trophoblast cells screened in the second part were used as the supporting cells, and the small molecules were removed one by one based on the culture conditions for above-mentioned 8 small molecule compounds (8M), and the indispensable small molecules were first screened.
2) Based on the small molecule compound combinations screened in the step 1), the small molecule compounds were successively removed one by one so that the best small molecule compound combination (with highest reprogramming efficiency) and the combination with fewest small molecule compounds (guaranteed for the formation of the clone) were finally found. […]

[2] = tested on: hiEndoPCs-Pans; assay: C-peptide release of hiEndoPC-derived pancreatic cells (ELISA); assay type: cell-based, human; details: insulin secretion promoter stimulation of hiEndoPCs-Pans
Procedure: 2. The adhered cells were induced to differentiate to the pancreas according to four stages.
2.1 MCDB 131 medium (purchased from Gibco)+1.5 g/L of sodium bicarbonate+2 mM (concentration) 2 mM of Glutamax (Glutamine)+10 mM of final glucose concentration (glucose)+2% of BSA (bovine serum albumin)+0.25 mM of ascorbic acid (vitamin C)+50 ng/mL of FGF7 (fibroblast growth factor 7)+0.25 μM of SANT-1+1 μM of retinoic acid (RA)+100 nM of LDN193189+1:200 ITS-X (insulin-Transferrin-selenium-ethanolamine complex solution)+200 nM TPB, cultured for 2 days.
2.2 MCDB 131 medium+1.5 g/L of sodium bicarbonate+2 mM of Glutamax+10 mM of final glucose concentration+2% of BSA+0.25 mM of ascorbic acid+2 ng/mL of FGF7+0.25 μM of SANT-1+0.1 μM of retinoic acid+200 nM of LDN193189+1:200 ITS-X+100 nM of TPB, cultured for 2 days. […]
13. The OD value was measured at a wavelength of 450 nm on a microplate reader within 30 minutes, and the results were calculated.

Row | Compound | clonal formation efficiency when the compound was removed from 8M [1] | clonal formation efficiency when the compound was removed from BBRS [1] | further results
1 | COC(=O)C1=C(C)NC(C)=C([N+](=O)[O-])C1c1ccccc1C(F)(F)F (stereo not shown) [Bay K 8644] | obviously decreased | significantly decreased | 
2 | COc1cc2nc(N3CCCN(C)CC3)nc(NC3CCN(Cc4ccccc4)CC3)c2cc1OC [Bix01294] | obviously decreased | significantly decreased | 
3 | [Cl-].[K+] [KCL] |  |  | release of C peptide [2]: significantly increased
4 | O=C(NOC[C@H](O)CO)c1ccc(F)c(F)c1Nc1ccc(I)cc1F [PD0325901] | increased |  | 
5 | O=C(O)/C=C(/CCc1ccc(Cl)cc1)c1ccccc1 [PS48] | increased |  | 
6 | O=C(O)C(Cc1c[nH]c2ccccc12)N1C(=O)c2ccccc2C1=O (stereo not shown) [RG108] | obviously decreased | significantly decreased | 
7 | NC(=O)c1ccc(-c2nc(-c3ccc4c(c3)OCO4)c(-c3ccccn3)[nH]2)cc1 [SB431542] | clones were not produced | no clones were formed | clonal formation efficiency compared with BBRS ([1]; SB431542 as basis): not as good as the optimal combination of BBRS; clone formation with the fewest small molecules ([1]; SB431542 as basis): capable for forming the clones
8 | CCCCNC(=O)NS(=O)(=O)c1ccc(C)cc1 [Tolbutamiden] |  |  | release of C peptide [2]: significantly increased
9 | CCCC(CCC)C(=O)O [VPA, Valproic Acid] | did not change significantly |  | 
10 | Fructose diphosphate [FBP] | increased |  | 
